Assays:
RAW264.7 [1] = test: Cytotoxicity against mouse RAW264.7 cells assessed as reduction in cell viability by MTT assay; format: cell-based
RAW264.7 [2] = test: Antiinflammatory activity in mouse RAW264.7 cells assessed as inhibition of LPS-induced NO production incubated for 24 hrs by Griess method; format: functional, cell-based; details: RAW264.7, 24 h

| SMILES | Activity (RAW264.7 [1]) | IC50 (RAW264.7 [2]) [µM] |
| --- | --- | --- |
| CC(=O)OCC1=C[C@@H]2C(=O)[C@]3(C=C(C)[C@H](O)[C@@]3(O)[C@@H]1O)[C@H](C)C[C@@H]1[C@H]2C1(C)C | Non-toxic | > 100 |
| CC(=O)O[C@H]1C(C)=C[C@]23C(=O)[C@@H](C=C(CO)[C@@H](OC(=O)c4ccccc4)[C@]12O)[C@H]1[C@@H](C[C@H]3C)C1(C)C | Non-toxic | 29.5 |
| C=C1[C@@H](OC(C)=O)[C@@H](OC(=O)c2ccccc2)[C@@H](OC(=O)c2cccnc2)C(C)(C)[C@H]2O[C@](O)([C@H](C)C2=O)[C@@]2(OC(C)=O)C[C@H](C)[C@H](OC(C)=O)[C@@H]2[C@H]1OC(C)=O | Non-toxic | 22.1 |
| CC1=C[C@@H]2C(=O)[C@]3(C=C(C)[C@H](O)[C@@]3(O)[C@@H]1OC(=O)c1ccccc1)[C@H](C)C[C@@H]1[C@H]2C1(C)C | Non-toxic | 3.1 |
| C=C1[C@H](OC(=O)c2ccccc2)[C@H]2[C@@H](OC(C)=O)[C@](C)(O)[C@@H](OC(C)=O)[C@]2(O)C(=O)[C@@H](C)/C=C/C(C)(C)C(=O)[C@H](OC(C)=O)[C@H]1OC(=O)c1ccccc1 | Non-toxic | 16.4 |
| CC1=C[C@@H]2C(=O)[C@]3(C=C(C)[C@H](OC(=O)c4ccccc4)[C@@]3(O)[C@@H]1O)[C@H](C)C[C@@H]1[C@H]2C1(C)C | Non-toxic | 16 |
| C=C1[C@H](OC(=O)c2ccccc2)[C@H]2[C@@H](OC(C)=O)[C@](C)(O)[C@@H](O)[C@]2(OC(C)=O)C(=O)[C@@H](C)/C=C/C(C)(C)C(=O)[C@H](O)[C@H]1OC(=O)c1ccccc1 | Non-toxic | 46.5 |
| CCCCC/C=C/C=C/C(=O)O[C@@H]1C(COC(C)=O)=C[C@@H]2C(=O)[C@]3(C=C(C)[C@H](O)[C@@]13O)[C@H](C)C[C@@H]1[C@H]2C1(C)C | Non-toxic | 7.6 |
| C=C1[C@@H](OC(C)=O)[C@@H](OC(=O)c2ccccc2)[C@@H](OC(C)=O)C(C)(C)[C@H]2O[C@](O)([C@H](C)C2=O)[C@@]2(OC(C)=O)C[C@@](C)(O)[C@H](OC(C)=O)[C@@H]2[C@H]1OC(C)=O | Non-toxic | 50.2 |
| CCCCC/C=C\C=C\C(=O)O[C@@H]1C(COC(C)=O)=C[C@@H]2C(=O)[C@]3(C=C(C)[C@H](O)[C@@]13O)[C@H](C)C[C@@H]1[C@H]2C1(C)C | Non-toxic | 10.1 |
| C=C1[C@H](OC(C)=O)[C@@H](OC(=O)c2ccccc2)[C@H](OC(=O)c2cccnc2)C(C)(C)[C@H]2O[C@@H]2[C@@H](C)C(=O)[C@@]2(OC(C)=O)C[C@H](C)[C@H](OC(C)=O)[C@@H]2[C@H]1OC(C)=O | Non-toxic | 6.3 |
| CCCCC/C=C\C=C\C(=O)O[C@H]1C(C)=C[C@]23C(=O)[C@@H](C=C(C)[C@@H](O)[C@]12O)[C@H]1[C@@H](C[C@H]3C)C1(C)C | Non-toxic | 14.1 |
| CCCCC/C=C\C=C\C(=O)O[C@H]1C(C)=C[C@]23C(=O)[C@@H](C=C(COC(C)=O)[C@@H](O)[C@]12O)[C@H]1[C@@H](C[C@H]3C)C1(C)C | Non-toxic | 5.1 |
| CCCCC/C=C/C=C/C(=O)O[C@H]1C(C)=C[C@]23C(=O)[C@@H](C=C(COC(C)=O)[C@@H](O)[C@]12O)[C@H]1[C@@H](C[C@H]3C)C1(C)C | Non-toxic | 0.7 |
| C=C1[C@@H](OC(C)=O)[C@@H](OC(=O)c2ccccc2)[C@@H](OC(C)=O)C(C)(C)[C@H]2O[C@](O)([C@H](C)C2=O)[C@@]2(OC(C)=O)C[C@H](C)[C@H](OC(C)=O)[C@@H]2[C@H]1OC(C)=O | Non-toxic | 2.9 |
| CC1=C[C@]23C(=O)[C@@H](C=C(CO)[C@@H](O)[C@]2(O)[C@H]1O)[C@H]1[C@@H](C[C@H]3C)C1(C)C [INGENOL] | Non-toxic | > 100 |
| N=C(N)NN [PIMAGEDINE] | – | 18.7 |
